Measurements as given in US12570650B2, “6-substituted pyridazine compounds as SMARCA2 and/or SMARCA4 degraders” (Aurigene Oncology Limited, priority 2020, dated 2026).

Assays:
Format in all cases: cell-based
[1] = biological target: T1, SMARCA2 (Homo sapiens, UniProt P51531); test: SMARCA2 degradation in VCaP cells by Western blot; conditions: 16 hours
T1 construct: Determination of SMARCA2 and SMARCA4 Degradation in VCaP Cells by Western Blot; endogenous in cells; host or cells: VCaP (ATCC CRL-2876)
T1 sequence (P51531 whole entry): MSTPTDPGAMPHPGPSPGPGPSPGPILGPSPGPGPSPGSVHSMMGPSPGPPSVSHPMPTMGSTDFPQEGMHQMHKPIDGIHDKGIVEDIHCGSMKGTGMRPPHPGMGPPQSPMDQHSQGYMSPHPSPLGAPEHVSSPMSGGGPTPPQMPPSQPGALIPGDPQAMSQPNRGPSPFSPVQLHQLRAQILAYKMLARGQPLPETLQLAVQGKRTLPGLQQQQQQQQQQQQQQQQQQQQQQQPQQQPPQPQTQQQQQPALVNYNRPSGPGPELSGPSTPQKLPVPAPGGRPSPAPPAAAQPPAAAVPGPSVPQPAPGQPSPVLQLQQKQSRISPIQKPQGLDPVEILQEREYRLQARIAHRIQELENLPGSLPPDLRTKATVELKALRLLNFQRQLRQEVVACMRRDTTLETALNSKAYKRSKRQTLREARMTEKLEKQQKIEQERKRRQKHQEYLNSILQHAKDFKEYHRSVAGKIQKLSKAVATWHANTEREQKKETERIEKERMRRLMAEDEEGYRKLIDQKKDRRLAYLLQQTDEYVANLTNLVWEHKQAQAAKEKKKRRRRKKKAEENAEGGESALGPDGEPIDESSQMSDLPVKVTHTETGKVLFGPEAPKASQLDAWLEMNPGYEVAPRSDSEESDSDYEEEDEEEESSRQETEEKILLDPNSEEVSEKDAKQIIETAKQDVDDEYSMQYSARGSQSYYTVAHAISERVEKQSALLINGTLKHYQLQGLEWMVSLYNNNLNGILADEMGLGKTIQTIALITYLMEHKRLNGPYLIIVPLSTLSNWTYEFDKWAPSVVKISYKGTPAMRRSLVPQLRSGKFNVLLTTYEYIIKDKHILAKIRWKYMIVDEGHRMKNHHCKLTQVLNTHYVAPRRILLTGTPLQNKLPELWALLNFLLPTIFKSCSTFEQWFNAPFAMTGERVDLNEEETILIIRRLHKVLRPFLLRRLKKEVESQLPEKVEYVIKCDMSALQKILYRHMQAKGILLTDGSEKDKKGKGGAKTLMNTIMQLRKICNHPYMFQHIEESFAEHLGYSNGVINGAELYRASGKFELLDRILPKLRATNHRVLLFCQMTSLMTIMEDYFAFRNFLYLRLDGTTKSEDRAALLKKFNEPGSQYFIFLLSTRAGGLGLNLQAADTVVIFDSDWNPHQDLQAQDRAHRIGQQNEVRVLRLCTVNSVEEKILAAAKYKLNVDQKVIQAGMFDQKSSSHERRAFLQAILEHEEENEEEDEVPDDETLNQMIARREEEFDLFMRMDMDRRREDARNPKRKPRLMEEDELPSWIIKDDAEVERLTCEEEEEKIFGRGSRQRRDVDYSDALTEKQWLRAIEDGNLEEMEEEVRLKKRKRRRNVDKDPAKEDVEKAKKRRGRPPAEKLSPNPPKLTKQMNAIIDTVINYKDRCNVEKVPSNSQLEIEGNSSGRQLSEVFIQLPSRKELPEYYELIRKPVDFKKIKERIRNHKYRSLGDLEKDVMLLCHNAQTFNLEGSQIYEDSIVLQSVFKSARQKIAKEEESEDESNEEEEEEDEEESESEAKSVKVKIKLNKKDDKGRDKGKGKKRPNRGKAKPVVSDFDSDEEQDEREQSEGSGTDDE
Protocol: Example-P2: Determination of SMARCA2 and SMARCA4 Degradation in VCaP Cells by Western Blot
VCaP (ATCC CRL-2876) was plated in 6 well plates using complete Dulbecco's Modified Eagle's Medium. On the third day, compounds of present invention were added to cells from 10 mM stocks made in DMSO (Sigma Cat no. D2650). Each concentration of compound was tested with DMSO not exceeding final percentage of 0.3 in the cells. Cells were incubated with the compound for 16 hours followed by harvesting with 1×RIPA lysis buffer (Thermo Fischer, catalogue number #89900) containing protease inhibitor cocktail (Sigma catalogue number #P-8340). Equal amount of protein was loaded on SDS PAGE gel for electrophoresis. Western blot was carried out for detection of either SMARCA2 (Cell signalling technologies, catalogue number #11966) or SMARCA4 antibody (Cell signalling technologies, catalogue number #52251). Beta-Tubulin antibody (Cell signalling technologies, catalogue number #86298) was used as loading control. Percentage of SMARCA2 or SMARCA4 degradation was calculated using formula % Degradation=100−(normalized band intensity in treated sample/normalized band intensity in DMSO sample)*100.

[2] = biological target: T2, SMARCA4 (Homo sapiens, UniProt P51532); test: SMARCA4 degradation in VCaP cells by Western blot; conditions: 16 hours
T2 construct: Determination of SMARCA2 and SMARCA4 Degradation in VCaP Cells by Western Blot; endogenous in cells; host or cells: VCaP (ATCC CRL-2876)
T2 sequence (P51532 whole entry): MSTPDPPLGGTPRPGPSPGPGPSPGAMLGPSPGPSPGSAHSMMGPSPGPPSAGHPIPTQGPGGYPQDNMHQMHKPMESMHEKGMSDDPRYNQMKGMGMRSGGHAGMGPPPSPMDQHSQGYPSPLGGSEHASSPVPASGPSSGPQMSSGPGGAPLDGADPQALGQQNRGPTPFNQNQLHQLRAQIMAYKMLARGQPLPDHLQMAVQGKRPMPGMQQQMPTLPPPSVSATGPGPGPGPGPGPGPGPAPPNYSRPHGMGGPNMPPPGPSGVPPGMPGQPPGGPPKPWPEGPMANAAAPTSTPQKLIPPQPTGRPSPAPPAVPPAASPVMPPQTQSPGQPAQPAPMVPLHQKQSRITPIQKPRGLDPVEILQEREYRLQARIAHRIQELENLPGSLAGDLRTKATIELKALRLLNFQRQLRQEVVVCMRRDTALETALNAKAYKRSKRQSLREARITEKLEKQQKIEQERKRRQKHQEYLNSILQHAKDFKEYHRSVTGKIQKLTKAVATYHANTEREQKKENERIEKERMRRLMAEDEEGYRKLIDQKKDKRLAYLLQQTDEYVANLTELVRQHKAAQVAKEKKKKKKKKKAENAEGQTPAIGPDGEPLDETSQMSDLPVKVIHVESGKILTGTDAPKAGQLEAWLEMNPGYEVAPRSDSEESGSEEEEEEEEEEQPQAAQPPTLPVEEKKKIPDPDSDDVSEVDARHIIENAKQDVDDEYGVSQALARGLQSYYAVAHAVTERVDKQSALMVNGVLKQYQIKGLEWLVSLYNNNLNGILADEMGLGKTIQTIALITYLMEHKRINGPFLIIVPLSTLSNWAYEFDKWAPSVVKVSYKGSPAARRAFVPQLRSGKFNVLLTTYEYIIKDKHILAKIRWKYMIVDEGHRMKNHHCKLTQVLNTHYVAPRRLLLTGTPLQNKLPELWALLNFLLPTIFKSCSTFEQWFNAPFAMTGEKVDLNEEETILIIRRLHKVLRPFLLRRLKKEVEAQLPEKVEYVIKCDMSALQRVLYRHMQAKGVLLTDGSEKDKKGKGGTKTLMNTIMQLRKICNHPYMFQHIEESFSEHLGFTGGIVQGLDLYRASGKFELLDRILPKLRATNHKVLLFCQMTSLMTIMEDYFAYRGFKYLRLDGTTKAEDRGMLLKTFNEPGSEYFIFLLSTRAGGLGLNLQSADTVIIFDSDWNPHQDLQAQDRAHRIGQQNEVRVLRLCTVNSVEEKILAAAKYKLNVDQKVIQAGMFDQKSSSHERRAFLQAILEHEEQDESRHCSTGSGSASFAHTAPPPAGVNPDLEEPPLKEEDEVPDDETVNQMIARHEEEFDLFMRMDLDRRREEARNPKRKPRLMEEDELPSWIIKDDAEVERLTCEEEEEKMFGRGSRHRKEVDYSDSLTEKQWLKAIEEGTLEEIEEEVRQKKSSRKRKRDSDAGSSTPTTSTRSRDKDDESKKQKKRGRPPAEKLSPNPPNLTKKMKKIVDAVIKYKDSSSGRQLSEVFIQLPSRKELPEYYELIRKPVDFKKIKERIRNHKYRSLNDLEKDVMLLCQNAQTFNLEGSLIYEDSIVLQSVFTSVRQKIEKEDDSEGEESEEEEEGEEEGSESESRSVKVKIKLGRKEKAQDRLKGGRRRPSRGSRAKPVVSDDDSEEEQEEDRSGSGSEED
Protocol: On the third day, compounds of present invention were added to cells from 10 mM stocks made in DMSO (Sigma Cat no. D2650). Each concentration of compound was tested with DMSO not exceeding final percentage of 0.3 in the cells. […] Equal amount of protein was loaded on SDS PAGE gel for electrophoresis. […] Percentage of SMARCA2 or SMARCA4 degradation was calculated using formula % Degradation=100−(normalized band intensity in treated sample/normalized band intensity in DMSO sample)*100.

[3] = test system: SK-MEL-5 cells; test: Anti proliferative activity, Cell Titer Glo assay, SK-MEL-5; conditions: Homo sapiens, SK-MEL-5, SK-MEL-5 cells, retreatment Day 4, terminated day 8, CellTiter-Glo
Protocol: Example-P3: Determination of Anti Proliferative Activity of Compounds by Cell Titer Glo®(Promega) Assay
Cells were seeded into 96-well plates and the plate was incubated in 37 degrees incubator overnight. The next day, compounds were diluted 3-fold to cover 9-point concentration range in DMSO. Intermediate plate dilution was prepared in media followed with compound treatment in cells. Retreatment of cells with compound dilutions was performed on Day 4 and assay was terminated on day 8 for SK-MEL-5 cells using CellTiter-Glo and the plate was kept on orbital shaker for 20 minutes at RT. Assay was terminated on day 6 for RERF-LC-A1 without a compound retreatment. Luminescence signal was recorded on VICTOR^3 instrument. Percent inhibition of proliferation was calculated at each concentration and plotted against the compound concentration. EC50 value was calculated using GraphPad software.

## Cc1ncsc1-c1ccc([C@H](C)NC(=O)[C@@H]2C[C@@H](O)CN2C(=O)[C@@H](NC(=O)CN2CC(c3ccc(-c4cnnc(-c5ccccc5O)c4)cc3)C2)C(C)(C)C)cc1 [Compound 21, (2S,4R)-4-hydroxy-1-((S)-2-(2-(3-(4-(6-(2-hydroxyphenyl)pyridazin-4-yl)phenyl)azetidin-1-yl)acetamido)-3,3-dimethylbutanoyl)-N-((S)-1-(4-(4-methylthiazol-5-yl)phenyl)ethyl)pyrrolidine-2-carboxamide]
[1]
  Percent degradation (at 100 nM) SMARCA2: 21%
[2]
  Percent degradation (at 100 nM) SMARCA4: 4%
[3]
  EC50: > 500 nM

## Cc1ncsc1-c1ccc([C@H](C)NC(=O)[C@@H]2C[C@@H](O)CN2C(=O)[C@@H](NC(=O)CN2CCC(c3cccc(-c4cnnc(-c5ccccc5O)c4)c3)CC2)C(C)(C)C)cc1 [Compound 23, (2S,4R)-4-hydroxy-1-((S)-2-(2-(4-(3-(6-(2-hydroxyphenyl)pyridazin-4-yl)phenyl)piperidin-1-yl)acetamido)-3,3-dimethylbutanoyl)-N-((S)-1-(4-(4-methylthiazol-5-yl)phenyl)ethyl)pyrrolidine-2-carboxamide]
[1]
  Percent degradation (at 100 nM) SMARCA2: 15%
[2]
  Percent degradation (at 100 nM) SMARCA4: 0%
[3]
  EC50: > 500 nM

## Cc1ncsc1-c1ccc([C@H](C)NC(=O)[C@@H]2C[C@@H](O)CN2C(=O)[C@@H](NC(=O)CN2C3CCC2CC(c2ccc(-c4cnnc(-c5ccccc5O)c4)cc2)C3)C(C)(C)C)cc1 (stereo partly drawn) [Compound 25, (2S,4R)-4-hydroxy-1-((2S)-2-(2-(3-(4-(6-(2-hydroxyphenyl)pyridazin-4-yl)phenyl)-8-azabicyclo[3.2.1]octan-8-yl)acetamido)-3,3-dimethylbutanoyl)-N-((S)-1-(4-(4-methylthiazol-5-yl)phenyl)ethyl)pyrrolidine-2-carboxamide]
[1]
  Percent degradation (at 100 nM) SMARCA2: 75%
[2]
  Percent degradation (at 100 nM) SMARCA4: 0%
[3]
  EC50: 250 to 500 nM

## Cc1ncsc1-c1ccc([C@H](C)NC(=O)[C@@H]2C[C@@H](O)CN2C(=O)[C@@H](NC(=O)C(C)N2CCN(c3ccc(-c4cnnc(-c5ccccc5O)c4)cc3)CC2)C(C)(C)C)cc1 (stereo partly drawn) [Compound 28]
[1]
  Percent degradation (at 100 nM) SMARCA2: 38%
[2]
  Percent degradation (at 100 nM) SMARCA4: 0%
[3]
  EC50: 250 to 500 nM

## Cc1ncsc1-c1ccc([C@H](C)NC(=O)[C@@H]2C[C@@H](O)CN2C(=O)[C@@H](NC(=O)CN2CC3(CC(c4ccc(-c5cnnc(-c6ccccc6O)c5)cc4)C3)C2)C(C)(C)C)cc1 [Compound 31, (2S,4R)-4-hydroxy-1-((S)-2-(2-(6-(4-(6-(2-hydroxyphenyl)pyridazin-4-yl)phenyl)-2-azaspiro[3.3]heptan-2-yl)acetamido)-3,3-dimethylbutanoyl)-N-((S)-1-(4-(4-methylthiazol-5-yl)phenyl)ethyl)pyrrolidine-2-carboxamide]
[1]
  Percent degradation (at 100 nM) SMARCA2: 89%
[2]
  Percent degradation (at 100 nM) SMARCA4: 0%
[3]
  EC50: 250 to 500 nM

## Cc1ncsc1-c1ccc([C@H](C)NC(=O)[C@@H]2C[C@@H](O)CN2C(=O)[C@@H](NC(=O)CN2CCC(O)(c3ccc(-c4cnnc(-c5ccccc5O)c4)cc3)CC2)C(C)(C)C)cc1 [Compound 32, (2S,4R)-4-hydroxy-1-((S)-2-(2-(4-hydroxy-4-(4-(6-(2-hydroxyphenyl)pyridazin-4-yl)phenyl)piperidin-1-yl)acetamido)-3,3-dimethylbutanoyl)-N-((S)-1-(4-(4-methylthiazol-5-yl)phenyl)ethyl)pyrrolidine-2-carboxamide]
[1]
  Percent degradation (at 100 nM) SMARCA2: 57%
[2]
  Percent degradation (at 100 nM) SMARCA4: 0%
[3]
  EC50: > 500 nM

## Cc1ncsc1-c1ccc([C@H](C)NC(=O)[C@@H]2C[C@@H](O)CN2C(=O)[C@@H](NC(=O)CCCCNc2ccc(-c3cnnc(-c4ccccc4O)c3)cc2)C(C)(C)C)cc1 [Compound 36, (2S,4R)-4-hydroxy-1-((S)-2-(5-((4-(6-(2-hydroxyphenyl)pyridazin-4-yl)phenyl)amino)pentanamido)-3,3-dimethylbutanoyl)-N-((S)-1-(4-(4-methylthiazol-5-yl)phenyl)ethyl)pyrrolidine-2-carboxamide]
[1]
  Percent degradation (at 100 nM) SMARCA2: 90%
[2]
  Percent degradation (at 100 nM) SMARCA4: 19%
[3]
  EC50: < 250 nM
